Measurements from patent US20260069538A1, “CXCR4 ANTAGONIST LOADED LIPOSOMES AND SILICASOMES” (The Regents of the University of California, priority 2021, published 2026).
Where two headings read alike, the source gives them in different places.

Tests used:
human PDAC slices = conditions: cited from earlier work
[1] = for EE % / LC %: liposome DSPC:Chol:DSPE-PEG2000 3:2:0.15, drug feed ratio 20% (drug:lipids w/w)
Method: This was followed by incubating the liposome suspension in the suspended CXCR4 antagonists using a feed ratio of 20%. The non-incorporated drug was removed by a PD-10 column.
To perform the drug loading, Mavorixafor (MAV or AMD11070) was prepared as stock solution in PBS and added at 20% w/w over the total wt. of the lipids. The MAV/liposome mixed solution was then heated at 65° C. for 1 h then cooled at room temperature for 30 minutes. The separation of encapsulated liposomal MAV (L-MAV) and non-encapsulated MAV (free MAV) was again, through the use of PD10 size exclusion column.
The elution profile of the free MAV is pre-determined by eluting free MAV through the PD10 and measuring the UV absorbance for each elution fraction at λmax 275 nm. In a typical run a 95%+ MAV recovery will be found between 10-20 mL fractions. The free-MAV fractions was collected and combined to quantify the free-MAV by UV at λmax 275 nm. Again, the L-MAV was collected from elution 2.75-5.75 mL (3 mL in total), the free-MAV was collected from 10-20 mL fractions.
Based on the free-MAV quantification, the drug loading of L-MAV was back calculated by subtracting the free MAV from the initial MAV feeding=20% w/w. […] Based on the drug loaded L-MAV concentration (mg/mL), L-MAV was concentrated by using 50 mL VIVA-spin tubes at 30 kDa cut-off to a final concentration of 0.1 mg/mL (=0.5 mg/kg per 200 μL injection for a 20 g mouse).

[2] = Remote loading of CXCR4 antagonists in silicasomes (encapsulation efficiency, loading capacity); type: physicochemical; conditions: for EE % / LC %: silicasome
Method: Following the application of a lipid bilayer, we used the weak basic properties of the of CXCR4 antagonists (AMD3100, AMD3465, AMD070) to attempt silicasome remote loading. To optimize the loading efficiency, two type of trapping agents, triethylammonium sucrose octasulfate (TEA8SOS) and ammonium sulfate ((NH4)2SO4) were tested. Briefly, for lipid coating, 40 mg/mL of the purified MSNPs were soaked in trapping agent solution (80 mM TEA8SOS or 300 mM (NH4)2SO4)) and were added to an ˜50% (w/v) lipids mixture (DSPC/Chol/DSPE-PEG2000, in the molar ratio of 3:2:0.15) solution in ethanol. The MSNP:lipid ratio was 1:1.25 (w/w). The suspension was sonicated using probe sonication (Ultrasonic Processor Model VCX130, 40% amplitude) at a 15 s/15 s on/off cycle.
The free trapping agent was removed through size exclusion chromatography using Sepharose CL-4B resin with a HEPES-buffered dextrose solution (5 mM HEPES, 5% dextrose, pH 6.5) for elution. For drug import, trapping agent-loaded particles were mixed with drug and incubated at 65° C. for 0.5 hour. The drug-laden silicasomes were purified by centrifugation to remove the free drug and liposomes; then filtered with a 0.2 μm membrane for sterilization. The drug concentration was determined by either UV spectroscopy or HPLC. Particle hydrodynamic size and zeta potential were measured by a ZETAPALS instrument (Brookhaven Instruments Corporation). The final product was visualized by cryoEM (TF20 FEI Tecnai-G2) to confirm the uniformity and integrity of the coated lipid bilayer.

[3] = tested on: metastatic BC models (including 4T1); conditions: in vivo; cited from earlier work
X4 HIV strains = conditions: read-out: inhibits the replication of X4 HIV strains (IC50); cited from earlier work
EMT6 tumors = assay: Orthotopic EMT6 breast cancer model; type: in vivo, mouse (Balb/c)
4T1 tumors = assay: Orthotopic 4T1 TNBC tumor model; conditions: for tumor shrinkage / tumor size: orthotopic 4T1, IV administration
Source text: Orthotopic 4T1 tumors were established as described in FIGS. 2-4.

KPC tumors = assay: Orthotopic KPC model: tumor weight and immunophenotyping; type: in vivo, mice
[4] = (NH4)2SO4, drug feed ratio 50% (drug:MSNP w/w)
[5] = TEA8SOS, drug feed ratio 50% (drug:MSNP w/w)
[6] = TEA8SOS, drug feed ratio 10% (drug:MSNP w/w)
[7] = TEA8SOS, drug feed ratio 20% (drug:MSNP w/w)

Compound	EE % ([1]; (NH4)2SO4) [%]	LC % ([1]; (NH4)2SO4) [%]	EE % ([1]; TEA8SOS) [%]	LC % ([1]; TEA8SOS) [%]	EE % [2, 4] [%]	LC % [2, 4] [%]	EE % [2, 5] [%]	LC % [2, 5] [%]	other results
c1cc(CN2CCCNCCNCCCNCC2)ccc1CN1CCCNCCNCCCNCC1 [AMD3100, Plerixafor]	19	3.8	42.4	8.5	27	13.5	51	25.5	CTL migration to the juxta-tumoral PDAC compartment (human PDAC slices; tumor cell slices): improve CTL migration to the juxta-tumoral PDAC compartment; CD8+ T-cell-mediated elimination of EpCAM+ PDAC cancer cells (human PDAC slices; tumor slice culture): did not exert similar effects; CTL recruitment [3]: increase CTL recruitment; blood perfusion [3]: improve blood perfusion; desmoplasia [3]: decrease desmoplasia; immunosuppression [3]: decrease immunosuppression; metastatic spread [3]: limit metastatic spread
c1ccc(CNCc2ccc(CN3CCCNCCNCCCNCC3)cc2)nc1 [AMD3465]	68.4	13.7	37.4	7.5	34.5	17.3	25	12.5	IC50 (X4 HIV strains): 1 to 10 nM
NCCCCN(Cc1nc2ccccc2[nH]1)[C@H]1CCCc2cccnc21 [AMD11070, Mavorixafor]	55.8	11.2	84.3	16.9	68	34	70	35	tumor growth / tumor shrinkage (EMT6 tumors): neither free nor L-AMD11070 were able to interfere in tumor growth; T cell exclusion in the tumor margin (immunohistochemistry) (4T1 tumors; 4T1 breast cancer tumors): interference in T cell exclusion in the margin; CD8+ spatial distribution during mIHC analysis (4T1 tumors; orthotopic 4T1): failed to show a significant effect; lung metastasis (IVIS imaging of explanted lungs) (4T1 tumors; orthotopic 4T1): significant metastasis reduction; tumor shrinkage / tumor size (4T1 tumors; listed as Free AMD11070): leads to tumor shrinkage; tumor shrinkage / tumor size (4T1 tumors; listed as free AMD11070): tumor shrinkage could be obtained; lung metastasis (IVIS imaging of explanted lungs) (4T1 tumors; orthotopic 4T1, listed as free AMD11070): significant impact on lung metastases; CXCR4 staining intensity (immunohistochemistry) (KPC tumors): encapsulated but not free AMD11070 delivery could significantly increase CXCR4 staining intensity; Typical MAV loading ([1]; liposome, 240 mM (NH4)2SO4, MAV feeding 20% w/w, back calculated from free MAV): 8-15 % w/w; best loading capacity (LC) in liposomes ([1]; liposomes): 17%; loading capacity ([2]; silicasome in which sucrose sulfate was used (FIG. 11)): 20%; EE % [2, 6]: 95%; LC % [2, 6]: 9.5%; EE % [2, 7]: 85%; LC % [2, 7]: 17%
